Two sequences from US10676514B2, “CDCA1-derived peptide and vaccine containing same” (ONCOTHERAPY SCIENCE, INC., priority 2014, dated 2020) can be followed below.

The test system of assay [1] is peptide-pulsed C1R-A11 cells. Nature of the assay: IFN-gamma ELISPOT assay of peptide-induced CTLs (HLA-A*1101). The conditions noted are these: CTLs induced from HLA-A*1101-positive donors, peptide-pulsed C1R-A11 vs control. The class given is cell-based, human. A digest of the protocol:
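CD8+ T cells from HLA-A*1101-positive healthy donors stimulated three times (days 0, 7, 14) with autologous monocyte-derived DCs pulsed with 20 μg/ml peptide, with IL-7 and IL-2. On day 21, CTL lines and clones tested by IFN-γ ELISPOT against peptide-pulsed C1R-A11 stimulators (1×10^4 cells/well).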

The test system of the next assay is peptide-pulsed C1R-A03. The assay is described as follows: IFN-gamma ELISA of CTL lines and CTL clones (HLA-A*0301). The class given is cell-based, human. To be noted: for IFN-gamma production of CTL clones: CTL clones by limiting dilution; for IFN-gamma production of CTL lines: peptide-pulsed vs non-pulsed target cells, HLA-A*0301. Here is the method: CTLs were propagated in culture using methods similar to those disclosed by Riddell et al. (Walter E A et al., N Engl J Med 1995, 333(16): 1038-44; Riddell S R et al., Nat Med 1996, 2(2): 216-23). The CTLs were co-cultured in a total of 25 ml AIM-V medium containing 5% AS (AIM-V/5% AS) and 40 ng/ml anti-CD3 antibody with two types of Mitomycin C-treated human B lymphoblastoid cell lines at 5×10^6 cells/flask. One day after beginning of the culturing, 120 IU/ml IL-2 was added to the culture. On days 5, 8 and 11, a fresh AIM-V/5% AS medium containing 30 IU/ml IL-2 was added to the culture (Tanaka H et al., Br J Cancer 2001, 84(1): 94-9; Umano Y et al., Br J Cancer 2001, 84(8): 1052-7; Uchida N et al., Clin Cancer Res 2004, 10(24): 8577-86; Suda T et al., Cancer Sci 2006, 97(5): 411-9; Watanabe T et al., Cancer Sci 2005, 96(8): 498-506).
Dilution of CTLs was carried out to make 0.3, 1 and 3 cells/well in 96 round-bottomed microtiter plates (Nalge Nunc International). The CTLs were co-cultured with two types of Mitomycin C-treated human B lymphoblastoid cell lines at 1×10^4 cells/well in a total of 150 micro-l/well AIM-V/5% AS medium with 30 ng/ml anti-CD3 antibody and 125 IU/ml IL-2. Ten days later, IL-2 was added to the medium at 50 micro-l/well to reach a final concentration of 125 IU/ml. On day 14, the CTL activity was tested, and the CTL clones were propagated using the same method as described above (Uchida N et al., Clin Cancer Res 2004, 10(24): 8577-86; Suda T et al., Cancer Sci 2006, 97(5): 411-9; Watanabe T et al., Cancer Sci 2005, 96(8): 498-506).
Specifically, peptide-pulsed C1R-A03 (1×10^4 cells/well) was prepared as the stimulator cell. The induced CTLs, i.e., CTL lines and CTL clones, were used as the responder cell. The IFN-gamma ELISPOT assay and IFN-gamma ELISA were performed according to the manufacturer's manual.

“Also recorded” adds a separate entry of the source.

Turning to “KIKLGIQQLK (a peptide derived from CDCA1) [SEQ ID NO: 38]”, the “peptide-specific CTL activity (IFN-gamma production)” value in assay [1] (listed as CDCA1-A11-10-400) is reported as “potent IFN-gamma production; also recorded: significant specific CTL activity”. For the same sequence, the “IFN-gamma production of CTL clones” value in the assay on peptide-pulsed C1R-A03 (peptide-pulsed C1R-A03, listed as CDCA1-A03-10-400) is recorded as “Potent IFN-gamma production”. For the same sequence, the “IFN-gamma production of CTL lines” value in the assay with peptide-pulsed C1R-A03 is listed as “potent IFN-gamma production”.
In the case of “KTKRLNELK (a peptide derived from CDCA1) [SEQ ID NO: 7]”, the “peptide-specific CTL activity (IFN-gamma production)” value in assay [1] (listed as CDCA1-A11-9-219) was “potent IFN-gamma production; also recorded: significant specific CTL activity”. Moreover, the “IFN-gamma production of CTL clones” value with peptide-pulsed C1R-A03 (peptide-pulsed C1R-A03, listed as CDCA1-A03-9-219) is listed as “Potent IFN-gamma production”. The “IFN-gamma production of CTL lines” value in the assay with peptide-pulsed C1R-A03 is listed as “potent IFN-gamma production”.
